Results from patent US7125546B2, “Polymeric micelle containing cisplatin enclosed therein and use thereof” (Toudai TLO, Ltd., priority 2000, dated 2006).
“And” between values parts separate entries of the source, which are not always exact repeats. Equal entries are not always repeated.

How the values were obtained:
[1] = Urea nitrogen (BUN) value in blood plasma 6 days after single caudate vein administration to normal mice (index for nephrotoxicity); settings: normal mouse, 6 days after single administration, ratio to non-treated group
Protocol: (§1) In FIG. 5, calculated were duration integrations (up to 17 days since drug treatment) of relative values in a change in a tumor volume and a weight change on a zero day, and the ratios of the drug-treated group to the drug-non-treat group in the values were shown as an antitumor effect and a weight change respectively. Further, the drug was administered once from a caudate vein to a normal C57BL6/N mouse (n=4, male, 6 ages in week) to evaluate a urea nitrogen (BUN) value in blood plasma after 6 days. […] The ratio of the drug-treated group to the drug-non-treat group in this BUN value was calculated as well, and the relative BUN value to the CDDP-equivalent dosage was shown in FIG. 5(C).

Louis pulmonary cancer = assay: Antitumor effect and weight change after single caudate vein administration to mice with subcutaneously transplanted Louis pulmonary cancer
Protocol: as §1

[2] = Blood plasma platinum concentration and accumulation of platinum in tumor and principal organs after caudate vein administration to tumor-bearing mice
Protocol: Evaluated were a change in a blood plasma platinum concentration and a change with the passage of time in accumulation of platinum in the principal organs observed when free CDDP and the CDDP-encapsulating micelle were administered from a caudate vein to a C57BL6/N mouse (n=4, male, 6 ages in week) in which Louis pulmonary cancer was subcutaneously transplanted to a hypogastric region, and the results thereof are shown in FIG. 4.

[3] = 0–24 hours, tissue platinum concentration-time curve

Substance: cis-Diaminedichloroplatinum (II) [CDDP]
- relative BUN value [1]: rise in the BUN value
- toxic death (Louis pulmonary cancer; 12 mg/kg): one mouse out of 3 mice
- weight change (Louis pulmonary cancer; mouse, in vivo): reduction in the weight
- antitumor effect (Louis pulmonary cancer; single caudate vein administration, tumor volume integration up to 17 days, ratio to non-treated group): increase in the antitumor effect
- Kidney AUC/tumor AUC [2, 3]: 3.9 and 7.7
- Liver AUC/tumor AUC [2, 3]: 2.6 and 2.7
- Muscle AUC/tumor AUC [2, 3]: 0.13 and 0.17
- Spleen AUC/tumor AUC [2, 3]: 0.31 and 0.43
- accumulation of platinum in a kidney ([2]; immediately after administration (about 15 minutes)): high accumulation immediately after administration
